Reference: patent US12365695B2, “Fused ring heteroaryl compounds as RIPK1 inhibitors” (BiSiChem Co., Ltd., priority 2019, dated 2025)

Test system: HT-29 cells
Test: Cell-based necroptosis assay for RIPK1 activity (cell viability, CCK-8)
Conditions: HT29 (human colon cancer), Z-VAD-FMK 20 μM, human TNFα 10 ng/ml, SM-164 100 nM, 24 h, read-out: Necroptosis inhibition (IC50)
Experimental: Human colon carcinoma cell HT-29 (KCLB 30038), BV2 mouse microglial cell (cell was a kind gift from Dr. Nak-Yun Sung, Senior researcher at Korea Prime Pharmacy CO., LTD.) and human microglial cell HMC3 (ATCC® CRL-3304™). HT-29 cell was grown in Roswell Park Memorial Institute (RPMI) 1640, BV2 cell was grown in Dulbecco's Modified Eagle's Medium (DMEM) and HMC3 cell was grown in Minimum Essential Media Eagle (MEM) supplemented with 10% fetal bovine serum and 1% mixture of penicillin and streptomycin (Gibco). Cells were maintained at 37° C. in a humidified 5% CO2 atmosphere.
To measure the activity of RIPK1 inhibitor in necroptotic cells, HT-29 cells were treated by control DMSO, human TNFα (Peprotech, Rocky Hill, USA), SM-164 (Biovision, California, USA) and a pan-caspase inhibitor Z-VAD-FMK (Invivogen, San Diego, USA). Cells were pretreated with Z-VAD-FMK 20 μM. After 30 min, human TNFα 10 ng/ml, SM-164 100 nM and RIPK1 Inhibitor (0.0001, 0.001, 0.01, 0.02, 0.05, 0.1, 1, 10 uM) were treated for 24 h. Cell viability was measured by Cell Counting Kit 8 (CCK-8) (Dong-in, Seoul, Korea).

Row | Structure (SMILES) | IC50 [nM]
1 | CN1C(=O)[C@@H](NC(=O)n2cc(Cc3cccc(C(F)(F)F)c3)cn2)COc2ccccc21 [Example 6, (S)—N-(5-methyl-4-oxo-2,3,4,5-tetrahydrobenzo[b][1,4]oxazepin-3-yl)-4-(3-(trifluoromethyl)benzyl)-1H-pyrazole-1-carboxamide] | < 100
2 | CN1C(=O)[C@@H](NC(=O)n2cc(Cc3ccc(C#N)cc3)cn2)COc2ccccc21 [Example 9, (S)-4-(4-cyanobenzyl)-N-(5-methyl-4-oxo-2,3,4,5-tetrahydrobenzo[b][1,4]oxazepin-3-yl)-1H-pyrazole-1-carboxamide] | < 100
3 | O=C1Nc2c(F)cc(F)cc2OC[C@@H]1NC(=O)n1cc(Cc2cccc(F)c2)cn1 [Example 15, (S)—N-(6,8-difluoro-4-oxo-2,3,4,5-tetrahydrobenzo[b][1,4]oxazepin-3-yl)-4-(3-fluorobenzyl)-1H-pyrazole-1-carboxamide] | > 100
4 | CN1C(=O)[C@@H](NC(=O)n2cc(Cc3cccc(C#N)c3)cn2)COc2ccccc21 [Example 7, (S)-4-(3-cyanobenzyl)-N-(5-methyl-4-oxo-2,3,4,5-tetrahydrobenzo[b][1,4]oxazepin-3-yl)-1H-pyrazole-1-carboxamide] | < 10
5 | CN1C(=O)[C@@H](NC(=O)n2cc(Cc3cccc(F)c3)cn2)COc2cccnc21 [Example 21, (S)-4-(3-fluorobenzyl)-N-(5-methyl-4-oxo-2,3,4,5-tetrahydropyrido[3,2-b][1,4]oxazepin-3-yl)-1H-pyrazole-1-carboxamide] | < 10
6 | Cc1cc2c(cn1)N(C)C(=O)[C@@H](NC(=O)n1cc(Cc3ccccc3)cn1)CO2 [Example 37, (S)-4-benzyl-N-(5,8-dimethyl-4-oxo-2,3,4,5-tetrahydropyrido[4,3-b][1,4]oxazepin-3-yl)-1H-pyrazole-1-carboxamide] | < 10
7 | CN1C(=O)[C@@H](NC(=O)n2cc(Cc3cccc(F)c3)cn2)COc2ccnc(F)c21 [Example 33, (S)—N-(6-fluoro-5-methyl-4-oxo-2,3,4,5-tetrahydropyrido[4,3-b][1,4]oxazepin-3-yl)-4-(3-fluorobenzyl)-1H-pyrazole-1-carboxamide] | < 100
8 | CN1C(=O)[C@@H](NC(=O)n2cc(Cc3ccccc3)cn2)COc2cc(F)ncc21 [Example 34, (S)-4-benzyl-N-(8-fluoro-5-methyl-4-oxo-2,3,4,5-tetrahydropyrido[4,3-b][1,4]oxazepin-3-yl)-1H-pyrazole-1-carboxamide] | < 10
9 | Cc1cccc(Cc2cnn(C(=O)N[C@H]3COc4ccccc4N(C)C3=O)c2)c1 [Example 5, (S)—N-(5-methyl-4-oxo-2,3,4,5-tetrahydrobenzo[b][1,4]oxazepin-3-yl)-4-(3-methylbenzyl)-1H-pyrazole-1-carboxamide] | < 10
10 | O=C1Nc2c(F)cc(F)cc2CC[C@@H]1NC(=O)n1cc(Cc2cccc(F)c2)cn1 [Example 26, (S)—N-(7,9-difluoro-2-oxo-2,3,4,5-tetrahydro-1H-benzo[b]azepin-3-yl)-4-(3-fluorobenzyl)-1H-pyrazole-1-carboxamide] | < 10
11 | CN1C(=O)C(NC(=O)n2cc(Cc3ccccc3)cn2)CCc2nccnc21 (stereo not shown) [Example 31, 4-benzyl-N-(5-methyl-6-oxo-6,7,8,9-tetrahydro-5H-pyrazino[2,3-b]azepin-7-yl)-1H-pyrazole-1-carboxamide] | > 100
12 | CN1C(=O)[C@@H](NC(=O)n2cc(Cc3cccc(F)c3)cn2)COc2cc(F)cc(F)c21 [Example 17, (S)—N-(6,8-difluoro-5-methyl-4-oxo-2,3,4,5-tetrahydrobenzo[b][1,4]oxazepin-3-yl)-4-(3-fluorobenzyl)-1H-pyrazole-1-carboxamide] | < 10
13 | CN1C(=O)[C@@H](NC(=O)n2cc(Cc3cccc(Cl)c3)cn2)COc2ccccc21 [Example 4, (S)-4-(3-chlorobenzyl)-N-(5-methyl-4-oxo-2,3,4,5-tetrahydrobenzo[b][1,4]oxazepin-3-yl)-1H-pyrazole-1-carboxamide] | < 10
14 | CN1C(=O)[C@@H](NC(=O)n2cc(Cc3cccc(F)c3)cn2)COc2ccccc21 [Example 3, (S)-4-(3-fluorobenzyl)-N-(5-methyl-4-oxo-2,3,4,5-tetrahydrobenzo[b][1,4]oxazepin-3-yl)-4-1H-pyrazole-1-carboxamide] | < 10
15 | O=C1Nc2ccccc2OC[C@@H]1NC(=O)n1cc(Cc2cccc(F)c2)cn1 [Example 2, (S)-4-(3-fluorobenzyl)-N-(4-oxo-2,3,4,5-tetrahydrobenzo[b][1,4]oxazepin-3-yl)-11H-pyrazole-1-carboxamide] | < 100
16 | COc1ccc2c(c1)N(C)C(=O)[C@@H](NC(=O)n1cc(Cc3cccc(F)c3)cn1)CO2 [Example 20, (S)-4-(3-fluorobenzyl)-N-(7-methoxy-5-methyl-4-oxo-2,3,4,5-tetrahydrobenzo[b][1,4]oxazepin-3-yl)-1H-pyrazole-1-carboxamide] | < 10

Row | Structure (SMILES) | IC50 [nM]
17 | CN1C(=O)[C@@H](NC(=O)n2cc(Cc3ccccc3)cn2)COc2cccc(F)c21 [Example 12, (S)-4-benzyl-N-(6-fluoro-5-methyl-4-oxo-2,3,4,5-tetrahydrobenzo[b][1,4]oxazepin-3-yl)-1H-pyrazole-1-carboxamide] | < 10
18 | COc1ccc2c(c1)N(C)C(=O)[C@@H](NC(=O)n1cc(Cc3ccccc3)cn1)CO2 [Example 19, (S)-4-benzyl-N-(7-methoxy-5-methyl-4-oxo-2,3,4,5-tetrahydrobenzo[b][1,4]oxazepin-3-yl)-1H-pyrazole-1-carboxamide] | < 10
19 | COc1ccc2c(c1)OC[C@H](NC(=O)n1cc(Cc3ccccc3)cn1)C(=O)N2C [Example 18, (S)-4-benzyl-N-(8-methoxy-5-methyl-4-oxo-2,3,4,5-tetrahydrobenzo[b][1,4]oxazepin-3-yl)-1H-pyrazole-1-carboxamide] | < 10
20 | CN1C(=O)[C@@H](NC(=O)n2cc(Cc3ccccc3)cn2)COc2cnccc21 [Example 24, (S)-4-benzyl-N-(1-methyl-2-oxo-1,2,3,4-tetrahydropyrido[3,4-b][1,4]oxazepin-3-yl)-1H-pyrazole-1-carboxamide] | < 100
21 | CN1C(=O)[C@@H](NC(=O)n2cc(Cc3cccc(F)c3)cn2)COc2cccc(F)c21 [Example 13, (S)—N-(6-fluoro-5-methyl-4-oxo-2,3,4,5-tetrahydrobenzo[b][1,4]oxazepin-3-yl)-4-(3-fluorobenzyl)-1H-pyrazole-1-carboxamide] | < 10
22 | CN1C(=O)[C@@H](NC(=O)n2cc(Cc3ccccc3)cn2)COc2cc(Cl)ncc21 [Example 36, (S)-4-benzyl-N-(8-chloro-5-methyl-4-oxo-2,3,4,5-tetrahydropyrido[4,3-b][1,4]oxazepin-3-yl)-1H-pyrazole-1-carboxamide] | < 10
23 | O=C1Nc2nccnc2CCC1NC(=O)n1cc(Cc2ccccc2)cn1 (stereo not shown) [Example 29, 4-benzyl-N-(6-oxo-6,7,8,9-tetrahydro-5H-pyrazino[2,3-b]azepin-7-yl)-1H-pyrazole-1-carboxamide] | > 100
24 | O=C1Nc2c(F)cccc2OC[C@@H]1NC(=O)n1cc(Cc2cccc(F)c2)cn1 [Example 11, (S)—N-(6-fluoro-4-oxo-2,3,4,5-tetrahydrobenzo[b][1,4]oxazepin-3-yl)-4-(3-fluorobenzyl)-1H-pyrazole-1 carboxamide] | < 100
25 | O=C1Nc2c(F)cc(F)cc2CCC1NC(=O)n1cc(Cc2ccccc2)cn1 (stereo not shown) [Example 25, 4-benzyl-N-(7,9-difluoro-2-oxo-2,3,4,5-tetrahydro-1H-benzo[b]azepin-3-yl)-1H-pyrazole-1-carboxamide] | < 100
26 | O=C1Nc2c(F)cccc2OC[C@@H]1NC(=O)n1cc(Cc2ccccc2)cn1 [Example 10, (S)-4-benzyl-N-(6-fluoro-4-oxo-2,3,4,5-tetrahydrobenzo[b][1,4]oxazepin-3-yl)-1H-pyrazole-1-carboxamide] | < 100
27 | CN1C(=O)[C@@H](NC(=O)n2cc(Cc3ccc(F)cc3)cn2)COc2ccccc21 [Example 8, (S)-4-(4-fluorobenzyl)-N-(5-methyl-4-oxo-2,3,4,5-tetrahydrobenzo[b][1,4]oxazepin-3-yl)-1H-pyrazole-1-carboxamide] | < 100
28 | CN1C(=O)C(NC(=O)n2cc(Cc3ccccc3)cn2)CCc2cc(F)cc(F)c21 (stereo not shown) [Example 27, 4-benzyl-N-(7,9-difluoro-1-methyl-2-oxo-2,3,4,5-tetrahydro-1H-benzo[b]azepin-3-yl)-1H-pyrazole-1-carboxamide] | < 10
29 | O=C1Nc2c(F)cc(F)cc2OC[C@@H]1NC(=O)n1cc(Cc2ccccc2)cn1 [Example 14, (S)-4-benzyl-N-(6,8-difluoro-4-oxo-2,3,4,5-tetrahydrobenzo[b][1,4]oxazepin-3-yl)-1H-pyrazole-1-carboxamide] | < 100
30 | CN1C(=O)[C@@H](NC(=O)n2cc(Cc3cccc(F)c3)cn2)COc2ccncc21 [Example 23, (S)-4-(3-fluorobenzyl)-N-(5-methyl-4-oxo-2,3,4,5-tetrahydropyrido[4,3-b][1,4]oxazepin-3-yl)-1H-pyrazole-1-carboxamide] | < 10
31 | CN1C(=O)[C@@H](NC(=O)n2cc(Cc3ccccc3)cn2)COc2ccncc21 [Example 22, (S)-4-benzyl-N-(5-methyl-4-oxo-2,3,4,5-tetrahydropyrido[4,3-b][1,4]oxazepin-3-yl)-1H-pyrazole-1-carboxamide] | < 10
